# Test system: inflammatory responses elicited by topically applied phorbol myristate acetate (PMA) or arachidonic acid (AA) in mouse ears
# Assay: Topical mouse ear assay (TME): edema measured by wet weight after topical PMA or AA
# Type: in vivo
# Details: mean, N=5 mice/group
# Procedure: The topical mouse ear assay (TME) was used to evaluate the novel compounds of the present invention for its effect on inflammatory responses elicited by topically applied phorbol myristate acetate (PMA) or topically applied archidonic acid (AA).
# Method: The right ears of mice (5 mice per group) were treated topically with either […] or 1000 μg AA alone or with the test compound in 25 μl of vehicle. The vehicle was water/pyridine/acetone (1:2:97). A control group of mice received the vehicle only. The mice were allowed food and water ad libitum during the treatment period; 2 hours for AA and 4 hours for PMA. The mice were sacrificed by cervical dislocation and a 6 mm diameter disc of tissue punched from both the treated and untreated ears. The tissue biopsies were immediately weighed and the weight increase of the treated ear relative to the weight of the untreated ear determined.
# All of the data are expressed as the mean ±SEM, N=5 mice/group.
structure (smiles),measurement,setting,value
"COc1ccc(O)c(CSc2ccccc2CO)c1 [Compound A, 2-[2-(Hydroxymethyl)phenylthiomethyl]-4-methoxyphenol]",Edema (% inhibition),dosage 30 μg,12%
same,Edema (% inhibition),dosage 50 μg,16%
same,Edema (% inhibition),dosage 200 μg,55%
same,Edema (% inhibition),dosage 300 μg,63%
"C[C@@H]1C[C@H]2[C@@H]3CCC4=CC(=O)C=C[C@]4(C)[C@@]3(F)[C@@H](O)C[C@]2(C)[C@@]1(O)C(=O)CO [Dexamethasone, reference compound]",Edema (% inhibition),dosage 5 μg,60%
"COc1ccc2c(c1)c(CC(=O)O)c(C)n2C(=O)c1ccc(Cl)cc1 [Indomethacin, reference compound]",Edema (% inhibition),dosage 150 μg,51%
